These results are taken from PMC4307180, “Overcoming myelosuppression due to synthetic lethal toxicity for FLT3-targeted acute myeloid leukemia therapy” (eLife, 2014).

The structures appear in SMILES notation. Entries after “also recorded” stand apart in the source; their conditions may differ. A value given as a limit tells only on which side of the number the result lay.

For one data set, the system named is Ba/F3 FLT3 D835V. The data set can be described thus: Ba/F3 cell viability, FLT3 D835V. It is filed as cell-based. The following applies: Mus musculus, BaF3; Ba/F3, 48 hr, ± SEM. Here is the method:
(§1) Stable Ba/F3 lines were generated by retroviral spinfection with the appropriate mutated plasmid as previously described ([Smith et al., 2012]).
(§2) Exponentially growing cells (5 × 10^3 cells per well) were plated in each well of a 96-well plate with 0.1 ml of RPMI 1640 + 10% (vol/vol) FCS containing the appropriate concentration of drug in triplicate, and cell viability was assessed after 48 hr as previously described ([Smith et al., 2012]). […] Log10-scale transformation of ratios, followed by conditional formatting using xcel spreadsheet software yielded the colored diagrams shown.
(§3) Mutations isolated in the screen were engineered into pMSCVpuroFLT3–ITD by QuikChange mutagenesis (Stratagene, La Jolla, CA) as previously described ([Smith et al., 2012]).

The test system of another data set is Ba/F3 FLT3 ITD + D835F. The experiment in a line: Ba/F3 cell viability, FLT3 ITD + D835F. It is filed as cell-based. The settings on record: Mus musculus, Ba/F3, 48 hr, ± SEM. As for the experimental part: as §1, §2, §3
For another data set, the target named is KIT (Homo sapiens, UniProt P10721). The data set can be described thus: Reaction Biology Corp kinase assay at Km-ATP (Figure 1C), KIT.
Sequence of KIT (P10721 26-976): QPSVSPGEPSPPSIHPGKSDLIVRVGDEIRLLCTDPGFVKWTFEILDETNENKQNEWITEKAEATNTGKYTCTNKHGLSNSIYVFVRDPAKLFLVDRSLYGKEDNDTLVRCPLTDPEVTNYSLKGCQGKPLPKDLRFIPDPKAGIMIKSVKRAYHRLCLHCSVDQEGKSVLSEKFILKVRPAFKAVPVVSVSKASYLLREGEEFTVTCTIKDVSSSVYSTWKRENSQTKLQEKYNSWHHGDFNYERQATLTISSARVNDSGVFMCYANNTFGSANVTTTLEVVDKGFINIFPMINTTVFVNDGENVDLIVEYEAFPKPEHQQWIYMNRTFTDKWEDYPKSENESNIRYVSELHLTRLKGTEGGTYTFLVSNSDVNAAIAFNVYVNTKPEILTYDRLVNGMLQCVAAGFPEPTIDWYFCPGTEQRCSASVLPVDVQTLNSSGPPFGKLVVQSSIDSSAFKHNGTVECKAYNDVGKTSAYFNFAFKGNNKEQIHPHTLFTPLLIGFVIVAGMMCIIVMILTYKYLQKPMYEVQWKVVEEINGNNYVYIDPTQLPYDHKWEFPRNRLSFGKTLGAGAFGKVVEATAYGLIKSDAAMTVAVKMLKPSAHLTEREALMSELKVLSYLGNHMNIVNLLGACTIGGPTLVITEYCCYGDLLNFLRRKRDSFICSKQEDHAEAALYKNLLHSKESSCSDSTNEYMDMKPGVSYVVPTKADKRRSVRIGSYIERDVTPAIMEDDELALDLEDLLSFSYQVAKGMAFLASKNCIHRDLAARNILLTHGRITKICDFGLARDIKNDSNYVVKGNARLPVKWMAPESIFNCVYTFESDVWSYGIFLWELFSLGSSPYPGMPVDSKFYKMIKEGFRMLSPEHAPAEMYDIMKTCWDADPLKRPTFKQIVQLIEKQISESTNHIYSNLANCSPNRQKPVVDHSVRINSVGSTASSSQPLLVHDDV
In a further data set the test system is Ba/F3 FLT3 ITD + Y693C. The data set can be described thus: Ba/F3 cell viability, FLT3 ITD + Y693C. It is filed as cell-based. The settings on record: Mus musculus, Ba/F3, 48 hr, ± SEM. Here is the method: as §1, §2, §3
For a further data set, the system named is Ba/F3 FLT3 ITD. The data set can be described thus: Ba/F3 cell viability, FLT3 ITD. It is filed as cell-based. The settings on record: Mus musculus, Ba/F3, 48 hr, ± SEM. As for the experimental part: as §1, §2, §3
The test system of a further data set is K562 cells (Bcr-Abl). The experiment in a line: Cell proliferation/viability assay, K562. Format: cell-based. The settings on record: Homo sapiens, 48 hr. As for the experimental part: as §2
A further data set deals with PDGFRβ (Homo sapiens, UniProt P09619). The experiment in a line: Reaction Biology Corp kinase assay at Km-ATP (Figure 1C), PDGFRβ.
Sequence of PDGFRβ (P09619 33-1106): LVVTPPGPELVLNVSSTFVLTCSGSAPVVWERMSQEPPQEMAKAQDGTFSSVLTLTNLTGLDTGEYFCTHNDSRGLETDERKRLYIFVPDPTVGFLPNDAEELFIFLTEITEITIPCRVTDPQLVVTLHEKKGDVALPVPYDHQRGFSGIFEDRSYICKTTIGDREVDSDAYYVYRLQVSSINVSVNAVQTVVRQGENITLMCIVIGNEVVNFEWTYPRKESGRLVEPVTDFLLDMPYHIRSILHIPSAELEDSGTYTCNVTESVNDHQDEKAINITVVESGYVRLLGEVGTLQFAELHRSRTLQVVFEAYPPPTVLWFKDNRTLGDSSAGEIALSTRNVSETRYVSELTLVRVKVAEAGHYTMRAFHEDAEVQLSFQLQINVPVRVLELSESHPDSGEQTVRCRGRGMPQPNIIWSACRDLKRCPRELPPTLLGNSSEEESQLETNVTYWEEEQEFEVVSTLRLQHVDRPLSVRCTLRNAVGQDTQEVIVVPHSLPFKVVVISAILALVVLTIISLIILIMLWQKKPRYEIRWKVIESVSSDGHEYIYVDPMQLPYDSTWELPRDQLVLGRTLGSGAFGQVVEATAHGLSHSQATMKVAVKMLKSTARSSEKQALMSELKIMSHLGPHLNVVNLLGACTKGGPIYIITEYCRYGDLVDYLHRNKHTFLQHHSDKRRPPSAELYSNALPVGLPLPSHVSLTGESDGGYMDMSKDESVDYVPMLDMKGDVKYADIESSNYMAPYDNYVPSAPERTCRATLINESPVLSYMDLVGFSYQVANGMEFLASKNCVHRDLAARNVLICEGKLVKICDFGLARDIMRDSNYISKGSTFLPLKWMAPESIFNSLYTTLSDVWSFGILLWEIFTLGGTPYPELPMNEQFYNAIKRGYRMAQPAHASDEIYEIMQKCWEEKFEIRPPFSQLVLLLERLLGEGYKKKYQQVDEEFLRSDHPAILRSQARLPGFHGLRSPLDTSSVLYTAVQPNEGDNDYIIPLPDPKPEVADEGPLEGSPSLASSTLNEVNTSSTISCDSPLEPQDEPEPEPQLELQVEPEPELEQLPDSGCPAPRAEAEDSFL
The subject of the next data set is Ba/F3 FLT3 ITD + D835V. The data set can be described thus: Ba/F3 cell viability, FLT3 ITD + D835V. It is filed as cell-based. The settings on record: Mus musculus, Ba/F3, 48 hr, ± SEM. Here is the method:
as §1, §2, §3

Data set [1] relates to MV4;11 cells (FLT3-ITD homozygous). The data set can be described thus: Cell proliferation/viability assay, MV4;11. Format: cell-based. The settings on record: Homo sapiens, 48 hr, ± SEM. As for the experimental part:
as §2

For a further data set, the system named is Ba/F3 FLT3 ITD + D698N. The experiment in a line: Ba/F3 cell viability, FLT3 ITD + D698N. It is filed as cell-based. The following applies: Mus musculus, Ba/F3, 48 hr, ± SEM. As for the experimental part:
as §1, §2, §3

The subject of data set [2] is normal bone marrow (BM) and stimulated peripheral blood (SPB) hematopoietic progenitors. The experiment in a line: Colony-forming assay, normal BM and stimulated peripheral blood. Format: cell-based, human. The text has this:
(§4) Primary AML blood samples and/or marrow aspirates were obtained on an IRB-approved protocol at the University of California, San Francisco. Informed consent was obtained in accordance with the Declaration of Helsinki. Mononuclear cells were purified by density centrifugation (Ficoll–Paque Plus, GE Healthsciences) before cryopreservation in 10% (vol/vol) DMSO or FCS (primary ITD and D835-mutant assays, Figure 3A–C) or immediate use in assays (Normal BM and SPB, Figure 3D–F). Normal BM and stimulated peripheral blood (SPB) samples were collected from donors at the UCSF oncology/hematology division. Cells were then suspended in MethoCult methylcellulose (Stem Cell Technologies, product no. H4435 Enriched, Canada) in 15-ml Falcon tubes, vigorously vortexed, bubbles settled over 10 min. Triplicates then plated via blunt-nosed syringe (1.1 ml each) into 3-cm dishes, avoiding bubble generation, and each dish placed in a larger 10-cm dish with water trough in an incubator (37°C, 5% CO2) for 13–14 days. Colonies were counted individually using traditional microscopy. CFU and BFU types reported separately (CFU-GEMM colonies counted as one of each). Results shown for FLT3 ITD primary blasts (Figure 3B) are a combination of leukemic blast colonies and BFU colonies.

In the next data set the test system is Ba/F3 FLT3 ITD + D835H. The experiment in a line: Ba/F3 cell viability, FLT3 ITD + D835H. It is filed as cell-based. The settings on record: Mus musculus, Ba/F3, 48 hr, ± SEM. As for the experimental part: as §1, §2, §3
Data set [3] concerns primary patient FLT3-ITD+ AML circulating blasts. The data set can be described thus: Colony-forming assay, primary patient FLT3-ITD+ AML blasts. Format: cell-based, human.
Source text: as §4, with “each).” for “each). Results shown for FLT3 ITD primary blasts (Figure 3B) are a combination of leukemic blast colonies and BFU colonies.”

`CC1NC(=O)c2c1c1c3ccccc3n(CCCN)c1c1[nH]c3ccccc3c21` (stereo not shown) [Star 27]: the IC50 in the data set with Ba/F3 FLT3 D835V was 19 ± 3 nM; in the data set with Ba/F3 FLT3 ITD + D835F, 53 ± 36 nM; on KIT, 1.02 µM; with Ba/F3 FLT3 ITD + Y693C it was 279 ± 36 nM; with Ba/F3 FLT3 ITD, 57 ± 45 nM; in the data set with K562 cells (Bcr-Abl), > 5000 nM. The IC50 came to 0.08 ± 0.011 µM against PDGFRβ; 70 ± 58 nM in the data set with Ba/F3 FLT3 ITD + D835V; 41 ± 6 nM in [1]; 174 ± 44 nM with Ba/F3 FLT3 ITD + D698N; 48 ± 29 nM in the data set with Ba/F3 FLT3 ITD + D835H. In addition, the “raw colony numbers, normal BM, BFUs” value in data set [2] (all Star 27-treated conditions) is given as “ca. 400”. In addition, the “raw colony numbers, normal BM, CFUs” value in data set [2] (all Star 27-treated conditions) is recorded as “ca. 300”. In [2] (normal BM and SPB donors, up to 1,000 nM), the “effect on normal hematopoietic colony formation (CFU and BFU)” value is listed as “no effect on hematopoiesis up to 1,000 nM; also recorded: no significant effect up to a concentration of 1,000 nM”. In addition, the inhibition at 1 µM in [3] (Homo sapiens, at 1000 nM, read-out: inhibition of colony formation, FLT3-ITD+ blasts) was > 80%. Further, the “raw colony numbers, FLT3-ITD+ blasts” value in [3] (at 1,000 nM, ca. 1,200 CFUs in DMSO plates) is “ca. 20”.

A word on the IC50: it is the concentration that inhibits the measured activity by half. In general, inhibition refers to the change of the read-out against control, counted positive when it falls.
